The values that follow come from patent US9981950B2, “Triazoles as NR2B receptor inhibitors” (Janssen Pharmaceuticals, Inc., priority 2014, dated 2018).

One assay addresses rat NR1/NR2B receptor (Rattus norvegicus (Rat), UniProt P35439+Q00960). Nature of the assay: RRNR2BB: inhibition of specific binding to the rat NR1/NR2B receptor. Conditions: [3H]-Ifenprodil binding, rat brain membranes, Hill-plot 2-parameter-model. As to the method:
RRNR2BB—Inhibition of Specific Binding to the Rat NR1/NR2B Receptor
Male Wistar rats (180 to 200 g) were killed by suffocation in a CO2 chamber for two minutes. Whole brains without cerebellum were removed and dissected on ice, placed into closed vials and stored at −70° C.
Membrane fractions were prepared and tested using standard techniques. At the time of the assay, 1 g of the brains were placed into 25 ml of 50 mM Tris/10 mM EDTA buffer, pH=7.1, (25 vol. per g of original tissue) and was homogenized for 30 sec at 20000 U/min with an Ultraturrax T25 (Jahnke & Kunkel, IKA-Labortechnik, Staufen, Germany). The homogenate was centrifuged at 4° C. for 10 min at 48000 g (OPTIMA L-70, Beckman, Palo Alto, Calif. 94304, USA). The supernatant was discarded and the pellet was homogenized on ice for 30 sec at 20000 U/min with an Ultraturrax and again centrifuged at 48000 g for 30 minutes at 4° C. The resultant pellet was resuspended in 25 ml of 50 mM Tris/10 mM EDTA buffer, homogenized for 30 sec with an Ultraturrax, aliquoted, frozen at −70° C. and stored until use
After thawing on the day of the assay, a 5 ml membrane aliquote was centrifuged at 48000 g for 30 min at 4° C. The pellet was resuspended in 5 ml of 5 mM Tris/1 mM EDTA buffer, pH=7.4, homogenized for 30 sec at 20000 U/min with an Ultraturrax and centrifuged at 48000 g for 30 min at 4° C. This step was repeated twice. The final pellet was homogenized in 5 ml of 5 mM Tris/mM EDTA buffer at 4° C. with an Ultraturrax and used for the Ifenprodil-binding assay.
Nonspecific binding was estimated in the presence of 10 M CP101.606. The samples were incubated for 60 min. at 4° C.
Binding was terminated by filtration of the incubated membrane preparations using Filtermat B (Pharmacia, Uppsala Sweden) and a Micro Cell Harvester (Skatron, Lier, Norway). The Filtermat B had been presoaked with 1% polyethylenimine and carefully washed with […] Tris/HCl-buffer pH=7.7 after the filtration to separate free and bound radioactivity.
For pipetting of the incubation mixture the robot Biomek2000 (Fa. Beckman) was used.
The IC50 values in the tables below were determined using the Hill-plot, 2-parameter-model.

Another assay has as its target hERG-receptor (Homo sapiens (Human), UniProt Q12809). Nature of the assay: HERGBD: inhibition of specific 3H-Dofetilide binding to the hERG-receptor. Conditions: HEK cell membranes with human ERG, Hill-plot 2-parameter-model. As to the method:
Inhibition of Specific Binding to the hERG-Receptor (HERGBD)
A HEK cell line with stable transfected human ERG receptor was used for the assay. The cells were grown adherently and maintained in DULBECCOS' MEM medium with 10% FBS, 1% non-essential amino acids, 1% Penicillin/Streptomycin and 400 μg/ml G418 (Calbiochem).
For binding assays and membrane preparations the cell culture medium was removed, cells were washed with PBS. Crude membranes for radioligand binding experiments were prepared by scraping the cells off the dishes in ice cold 20 mM HEPES/0.1 mM KCl/pH 7.2. The cell suspension was homogenized on ice (Ultra turrax, 3×20 sec.) and the homogenate was spun for 10 min (1° C., 1000 g, OPTIMA, SW28, 2800 U/min). The supernatant was than centrifuged for 40 min at 100000 g (1° C., OPTIMA, SW28, 23000 U/min). The membrane pellet was resuspended in 20 mM HEPES/0.1 mM KCl/pH 7.2, frozen and stored at −80° C.
After thawing on the day of the assay, the membrane suspension was diluted further with 20 mM HEPES/0.1 mM KCl/pH 7.2.
The incubation mixture of 200 μl contained 1.5 nmol/l 3H-Dofetilide, optimized amount of membrane preparation, 20 mM HEPES/0.1 mM KCl/(pH 7.2) and inhibitor in 1% DMSO. Nonspecific binding was estimated in the presence of […] Dofetilide. The samples were incubated for 90 min. at RT.
Binding was terminated by filtration of the incubated membrane preparations using Filtermat B (Pharmacia, Uppsala Sweden) and a Micro Cell Harvester (Skatron, Lier, Norway). The Filtermat B had been presoaked with 1% polyethylenimine and carefully washed with 0.05 M Tris/HCl-buffer pH=7.7 after the filtration to separate free and bound radioactivity. The filters were counted in a scintillation counter (Betaplate 1205, Berthold, Wildbad, Germany) in order to determine the specific binding of [^3H]-Dofetilide.
The optimal amount of membrane preparation in the assay was determined and optimized for each membrane preparation separately in front of using the membranes in compound testing.
For pipetting of the incubation mixture we routinely use the robot Biomek2000 (Fa. Beckman).
(The hERG channel carries a current that helps repolarise heart muscle cells.)

Chain of rat NR1/NR2B receptor (Q00960 27-1482, other chains not shown): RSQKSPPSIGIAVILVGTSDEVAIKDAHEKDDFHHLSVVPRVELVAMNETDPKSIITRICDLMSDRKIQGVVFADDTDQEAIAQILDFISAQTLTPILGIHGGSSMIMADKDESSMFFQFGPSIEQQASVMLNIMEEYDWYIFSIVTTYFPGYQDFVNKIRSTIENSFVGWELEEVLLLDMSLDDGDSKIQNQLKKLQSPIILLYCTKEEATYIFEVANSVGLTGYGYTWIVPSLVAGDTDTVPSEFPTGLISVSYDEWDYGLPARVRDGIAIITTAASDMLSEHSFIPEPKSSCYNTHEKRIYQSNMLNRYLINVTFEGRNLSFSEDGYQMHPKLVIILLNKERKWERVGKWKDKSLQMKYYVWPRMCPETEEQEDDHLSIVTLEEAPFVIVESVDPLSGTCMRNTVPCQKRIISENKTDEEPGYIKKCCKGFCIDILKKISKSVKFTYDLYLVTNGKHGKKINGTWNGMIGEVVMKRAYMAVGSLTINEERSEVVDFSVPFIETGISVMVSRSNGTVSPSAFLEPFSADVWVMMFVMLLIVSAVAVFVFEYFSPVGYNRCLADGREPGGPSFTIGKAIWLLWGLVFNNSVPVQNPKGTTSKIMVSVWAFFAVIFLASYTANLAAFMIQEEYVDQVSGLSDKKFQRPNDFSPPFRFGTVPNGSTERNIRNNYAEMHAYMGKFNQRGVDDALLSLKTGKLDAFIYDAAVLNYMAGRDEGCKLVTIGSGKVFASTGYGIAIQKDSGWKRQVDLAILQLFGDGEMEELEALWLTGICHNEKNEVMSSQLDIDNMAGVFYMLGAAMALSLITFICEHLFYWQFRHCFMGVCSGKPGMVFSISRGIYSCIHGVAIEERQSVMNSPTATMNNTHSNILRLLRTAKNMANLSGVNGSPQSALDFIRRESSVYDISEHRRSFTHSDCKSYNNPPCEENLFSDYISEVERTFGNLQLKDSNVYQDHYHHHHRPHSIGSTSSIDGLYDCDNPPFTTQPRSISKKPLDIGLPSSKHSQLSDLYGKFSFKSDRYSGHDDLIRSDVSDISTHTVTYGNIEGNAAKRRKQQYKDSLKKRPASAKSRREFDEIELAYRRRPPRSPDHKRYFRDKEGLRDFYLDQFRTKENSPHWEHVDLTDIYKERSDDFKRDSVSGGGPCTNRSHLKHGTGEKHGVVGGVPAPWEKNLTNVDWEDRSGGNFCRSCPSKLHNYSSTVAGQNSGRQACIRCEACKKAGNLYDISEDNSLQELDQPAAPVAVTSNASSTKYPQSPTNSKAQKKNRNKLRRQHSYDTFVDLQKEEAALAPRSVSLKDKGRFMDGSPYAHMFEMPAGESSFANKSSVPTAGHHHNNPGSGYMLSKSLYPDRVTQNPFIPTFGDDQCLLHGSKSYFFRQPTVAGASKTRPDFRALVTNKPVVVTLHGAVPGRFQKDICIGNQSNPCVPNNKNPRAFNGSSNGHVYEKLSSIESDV
Chain of hERG-receptor (Q12809 whole entry): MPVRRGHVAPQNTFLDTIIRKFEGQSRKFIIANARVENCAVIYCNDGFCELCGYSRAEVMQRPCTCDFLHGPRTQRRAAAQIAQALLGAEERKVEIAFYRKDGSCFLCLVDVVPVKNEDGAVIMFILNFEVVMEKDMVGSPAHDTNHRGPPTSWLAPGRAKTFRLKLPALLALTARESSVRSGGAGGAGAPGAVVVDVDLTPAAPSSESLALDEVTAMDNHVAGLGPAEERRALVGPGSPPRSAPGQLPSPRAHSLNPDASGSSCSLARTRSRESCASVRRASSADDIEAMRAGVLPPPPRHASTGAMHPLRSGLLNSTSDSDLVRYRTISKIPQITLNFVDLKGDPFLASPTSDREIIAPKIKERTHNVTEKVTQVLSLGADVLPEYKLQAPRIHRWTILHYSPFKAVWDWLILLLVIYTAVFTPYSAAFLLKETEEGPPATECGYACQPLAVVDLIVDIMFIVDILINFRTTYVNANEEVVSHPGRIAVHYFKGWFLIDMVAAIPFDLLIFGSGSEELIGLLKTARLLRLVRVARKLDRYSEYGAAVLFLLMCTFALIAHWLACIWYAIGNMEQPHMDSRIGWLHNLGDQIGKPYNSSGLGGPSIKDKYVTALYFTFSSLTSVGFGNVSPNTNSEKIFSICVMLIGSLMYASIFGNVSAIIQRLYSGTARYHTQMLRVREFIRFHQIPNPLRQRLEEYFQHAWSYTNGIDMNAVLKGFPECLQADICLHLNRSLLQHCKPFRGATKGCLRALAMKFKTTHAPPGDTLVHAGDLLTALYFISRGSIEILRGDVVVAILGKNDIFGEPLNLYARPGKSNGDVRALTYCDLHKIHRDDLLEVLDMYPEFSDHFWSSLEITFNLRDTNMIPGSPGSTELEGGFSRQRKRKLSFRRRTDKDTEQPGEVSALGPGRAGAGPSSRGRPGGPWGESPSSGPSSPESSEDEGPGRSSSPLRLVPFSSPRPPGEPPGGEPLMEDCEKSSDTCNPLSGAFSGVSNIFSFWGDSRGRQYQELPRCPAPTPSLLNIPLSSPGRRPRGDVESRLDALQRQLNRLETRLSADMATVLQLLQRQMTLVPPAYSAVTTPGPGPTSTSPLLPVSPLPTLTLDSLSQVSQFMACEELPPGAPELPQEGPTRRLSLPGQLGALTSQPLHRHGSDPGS

The IC50 is the midpoint of a concentration-inhibition curve. Read a low IC50 as greater potency. As to `Clc1ccc(-n2cc(Cn3cnc(C4CCCC4)n3)nn2)cc1` [Example 15, 1-(4-Chloro-phenyl)-4-(3-cyclopentyl-[1,2,4]triazol-1-ylmethyl)-1H-[1,2,3]triazole], the IC50 was > 10 µM on rat NR1/NR2B receptor and 87.9 µM on hERG-receptor.
Turning to `CCc1ncnn1Cc1cn(-c2ccc(Cl)cc2)nn1` [Example 5, 1-(4-Chloro-phenyl)-4-(5-ethyl-[1,2,4]triazol-1-ylmethyl)-1H-[1,2,3]triazole], the IC50 at rat NR1/NR2B receptor was > 10 µM; at hERG-receptor it was 194 µM.
The corresponding values for `Cc1nncn1Cc1cn(-c2ccc(Cl)cc2)nn1` [Example 31, 1-(4-Chloro-phenyl)-4-(3-methyl-[1,2,4]triazol-4-ylmethyl)-1H-[1,2,3]triazole] are > 10 µM and 22.4 µM.
At hERG-receptor, `OCCc1nccn1Cc1cn(-c2ccc(Cl)c(OC(F)F)c2)nn1` [Example 98, 1-(4-Chloro-3-difluoromethoxy-phenyl)-4-[2-(2-hydroxy-ethyl)-imidazol-1-ylmethyl]-1H-[1,2,3]triazole] came in with an IC50 of 17.1 µM.
On to `Clc1ccc(-n2cc(Cn3cnc(C4CC4)n3)nn2)cc1` [Example 13, 1-(4-Chloro-phenyl)-4-(3-cyclopropyl-[1,2,4]triazol-1-ylmethyl)-1H-[1,2,3]triazole], for which the values for the IC50 at rat NR1/NR2B receptor and at hERG-receptor were > 10 µM and 45.1 µM, respectively.
On the same counts, the results for `Cc1nc(C)n(Cc2cn(-c3ccccc3)nn2)n1` [Example 46, 4-(3,5-Dimethyl-[1,2,4]triazol-1-ylmethyl)-1-phenyl-1H-[1,2,3]triazole] are > 10 µM and 7.58 µM.
For the molecule `Cc1nc(C2CCC2)n(Cc2cn(-c3ccc(Cl)cc3)nn2)n1` [Example 21, 1-(4-Chloro-phenyl)-4-(5-cyclobutyl-3-methyl-[1,2,4]triazol-1-ylmethyl)-1H-[1,2,3]triazole], the figures for the IC50 at rat NR1/NR2B receptor and at hERG-receptor were > 10 µM and 3.52 µM, respectively.
With `CC(C)c1ncn(Cc2cn(-c3ccc(Cl)cc3)nn2)n1` [Example 4, 1-(4-Chloro-phenyl)-4-(3-isopropyl-[1,2,4]triazol-1-ylmethyl)-1H-[1,2,3]triazole], the IC50 on rat NR1/NR2B receptor was > 10 µM.
In turn, `CCCc1nccn1Cc1cn(-c2ccc(F)c(Cl)c2)nn1` [Example 43, 1-(3-Chloro-4-fluoro-phenyl)-4-(2-propyl-imidazol-1-ylmethyl)-1H-[1,2,3]triazole] gave an IC50 on hERG-receptor of 2.72 µM.
As to `Clc1ccc(-n2cc(Cn3ncnc3C3CC3)nn2)cc1` [Example 16, 1-(4-Chloro-phenyl)-4-(5-cyclopropyl-[1,2,4]triazol-1-ylmethyl)-1H-[1,2,3]triazole], the IC50 on rat NR1/NR2B receptor was > 10 µM; on hERG-receptor it was > 100 µM.
As to `Cc1nc(CO)n(Cc2cn(-c3ccccc3)nn2)n1` [Example 47, 4-(5-Hydroxymethyl-3-methyl-[1,2,4]triazol-1-ylmethyl)-1-phenyl-1H-[1,2,3]triazole], the IC50 on rat NR1/NR2B receptor was > 10 µM.
On hERG-receptor, `Clc1ccc(-n2cc(Cn3ccnc3Cl)nn2)cc1` [Example 26, 4-(2-Chloro-imidazol-1-ylmethyl)-1-(4-chloro-phenyl)-1H-[1,2,3]triazole] showed an IC50 of 12.1 µM.
On to `CC(C)(C)c1nccn1Cc1cn(-c2ccc(Cl)cc2)nn1` [Example 30, 4-(2-tert-Butyl-imidazol-1-ylmethyl)-1-(4-chloro-phenyl)-1H-[1,2,3]triazole], for which, on hERG-receptor, the IC50 was 3.58 µM.
Turning to `CCCCc1nccn1Cc1cn(-c2ccc(F)c(C(F)F)c2)nn1` [Example 86, 1-(3-Difluoromethyl-4-fluoro-phenyl)-4-(2-butyl-imidazol-1-ylmethyl)-1H-[1,2,3]triazole], on hERG-receptor, the IC50 came to 3.24 µM.
The same measure, in the same setting: the figure for `Cc1cc(-n2cc(Cn3ccnc3C3CC3)nn2)ccc1Cl` [Example 65, 1-(4-Chloro-3-methyl-phenyl)-4-(2-cyclopropyl-imidazol-1-ylmethyl)-1H-[1,2,3]triazole] is 3.87 µM.
Same read-out and setting: the same measure for `CS(=O)(=O)c1cccc(-n2cc(Cn3ccnc3CCO)nn2)c1` [Example 79, 4-[2-(2-Hydroxy-ethyl)-imidazol-1-ylmethyl]-1-(3-methanesulfonyl-phenyl)-1H-[1,2,3]triazole]: > 100 µM.
`Fc1cc(-n2cc(Cn3ccnc3C3CC3)nn2)ccc1Cl` [Example 61, 1-(4-Chloro-3-fluoro-phenyl)-4-(2-cyclopropyl-imidazol-1-ylmethyl)-1H-[1,2,3]triazole] gave a 50% inhibitory concentration (IC50) at hERG-receptor of 3.62 µM.
Take `CC(C)(C)c1ncnn1Cc1cn(-c2ccc(Cl)cc2)nn1` [Example 19, 4-(5-tert-Butyl-[1,2,4]triazol-1-ylmethyl)-1-(4-chloro-phenyl)-1H-[1,2,3]triazole]: the IC50 at rat NR1/NR2B receptor was > 10 µM; on hERG-receptor, 33.8 µM.
As to `Cc1nc(CO)nn1Cc1cn(-c2ccccc2)nn1` [Example 48, 4-(3-Hydroxymethyl-5-methyl-[1,2,4]triazol-1-ylmethyl)-1-phenyl-1H-[1,2,3]triazole], the IC50 on rat NR1/NR2B receptor was > 10 µM.
Turning to `CC(C)(C)c1ncn(Cc2cn(-c3ccc(Cl)cc3)nn2)n1` [Example 20, 4-(3-tert-Butyl-[1,2,4]triazol-1-ylmethyl)-1-(4-chloro-phenyl)-1H-[1,2,3]triazole], the IC50 on rat NR1/NR2B receptor was > 10 µM; at hERG-receptor it was 35.6 µM.
As to `Clc1ccc(-n2cc(Cn3nc(C4CC4)nc3C3CC3)nn2)cc1` [Example 10, 1-(4-Chloro-phenyl)-4-(3,5-dicyclopropyl-[1,2,4]triazol-1-ylmethyl)-1-[1,2,3]triazole], the IC50 at rat NR1/NR2B receptor was > 10 µM; on hERG-receptor, 0.0039 µM.
In the case of `FC(F)(F)c1ncn(Cc2cn(-c3ccc(Cl)cc3)nn2)n1` [Example 17, 1-(4-Chloro-phenyl)-4-(3-trifluoromethyl-[1,2,4]triazol-1-ylmethyl)-1H-[1,2,3]triazole], the figures for the IC50 on rat NR1/NR2B receptor and on hERG-receptor were > 10 µM and 25.6 µM, respectively.
With `Clc1ccc(-n2cc(Cn3ncnc3C3CCC3)nn2)cc1` [Example 11, 1-(4-Chloro-phenyl)-4-(5-cyclobutyl-[1,2,4]triazol-1-ylmethyl)-1H-[1,2,3]triazole], the IC50 on rat NR1/NR2B receptor was > 1 µM; at hERG-receptor it was > 100 µM.
For the molecule `Cc1nc(C2CCC2)nn1Cc1cn(-c2ccc(Cl)cc2)nn1` [Example 22, 1-(4-Chloro-phenyl)-4-(3-cyclobutyl-5-methyl-[1,2,4]triazol-1-ylmethyl)-1H-[1,2,3]triazole], the IC50 on rat NR1/NR2B receptor is > 10 µM.
Take `CC(C)c1ncnn1Cc1cn(-c2ccc(Cl)cc2)nn1` [Example 7, 1-(4-Chloro-phenyl)-4-(5-isopropyl-[1,2,4]triazol-1-ylmethyl)-1H-[1,2,3]triazole]: the IC50 at rat NR1/NR2B receptor was > 10 µM; at hERG-receptor it was > 100 µM.
`CCCc1ncn(Cc2cn(-c3ccc(Cl)cc3)nn2)n1` [Example 3, 1-(4-Chloro-phenyl)-4-(3-propyl-[1,2,4]triazol-1-ylmethyl)-1H-[1,2,3]triazole]: the IC50 is > 10 µM on rat NR1/NR2B receptor and 0.305 µM on hERG-receptor.
In turn, `CC(C)c1nccn1Cc1cn(-c2cccc(OC(F)(F)F)c2)nn1` [Example 73, 4-(2-Isopropyl-imidazol-1-ylmethyl)-1-(3-trifluoromethoxy-phenyl)-1H-[1,2,3]triazole] had an IC50 on hERG-receptor of 13 µM.
